BindingDB's records for patent US11746110 (Shenzhen Targetrx, 2023)

Target: Tyrosine-protein kinase ABL1 (Homo sapiens, UniProt P00519)
Test: Biochemical Kinase Assay
Description: Reagents and materials: ABL (ThermoFisher, Cat. No. PV3585), ABL T315I(Thermo Fisher, Cat. No. PR7429B), Ret (Carna, Cat. No. 08-159-10 ug), RETV804M, Active (Signalchem, Cat. No. R02-12GG), ATP (Sigma, Cat. No. A7699-1G), DMSO (Sigma, Cat. No. D2650), 96-well plate (Corning, Cat. No. 3365), 384-well plate (Greiner, Cat. No. 784076), buffer solution (Thermo Fisher, Cat. No. PR4876B). Specific Assay Method: Compound formulation: The test compounds were dissolved in DMSO to prepare a 20 mM stock solution. Before use, the compounds were diluted in DMSO to 0.1 mM, and diluted into 11 concentrations with a 3-fold gradient. When addition, dilutions of 4-fold final concentration were then made with buffer solution. Kinase assay method: After preparing the buffer, the enzyme was mixed with pre-formulated and diluted compounds of different concentrations in duplicate for each concentration, and placed at room temperature for 30 minutes. The corresponding substrate and ATP were added thereto,and reacted at room temperature for 60 minutes (both a negative and a positive control were set). After the reaction, antibody was added for detection, Envision detection was carried out after 60 minutes incubation at room temperature, and data was collected. Data analysis and fitting were made according to XLfit5 software.

Sequence of Tyrosine-protein kinase ABL1 (P00519 whole entry): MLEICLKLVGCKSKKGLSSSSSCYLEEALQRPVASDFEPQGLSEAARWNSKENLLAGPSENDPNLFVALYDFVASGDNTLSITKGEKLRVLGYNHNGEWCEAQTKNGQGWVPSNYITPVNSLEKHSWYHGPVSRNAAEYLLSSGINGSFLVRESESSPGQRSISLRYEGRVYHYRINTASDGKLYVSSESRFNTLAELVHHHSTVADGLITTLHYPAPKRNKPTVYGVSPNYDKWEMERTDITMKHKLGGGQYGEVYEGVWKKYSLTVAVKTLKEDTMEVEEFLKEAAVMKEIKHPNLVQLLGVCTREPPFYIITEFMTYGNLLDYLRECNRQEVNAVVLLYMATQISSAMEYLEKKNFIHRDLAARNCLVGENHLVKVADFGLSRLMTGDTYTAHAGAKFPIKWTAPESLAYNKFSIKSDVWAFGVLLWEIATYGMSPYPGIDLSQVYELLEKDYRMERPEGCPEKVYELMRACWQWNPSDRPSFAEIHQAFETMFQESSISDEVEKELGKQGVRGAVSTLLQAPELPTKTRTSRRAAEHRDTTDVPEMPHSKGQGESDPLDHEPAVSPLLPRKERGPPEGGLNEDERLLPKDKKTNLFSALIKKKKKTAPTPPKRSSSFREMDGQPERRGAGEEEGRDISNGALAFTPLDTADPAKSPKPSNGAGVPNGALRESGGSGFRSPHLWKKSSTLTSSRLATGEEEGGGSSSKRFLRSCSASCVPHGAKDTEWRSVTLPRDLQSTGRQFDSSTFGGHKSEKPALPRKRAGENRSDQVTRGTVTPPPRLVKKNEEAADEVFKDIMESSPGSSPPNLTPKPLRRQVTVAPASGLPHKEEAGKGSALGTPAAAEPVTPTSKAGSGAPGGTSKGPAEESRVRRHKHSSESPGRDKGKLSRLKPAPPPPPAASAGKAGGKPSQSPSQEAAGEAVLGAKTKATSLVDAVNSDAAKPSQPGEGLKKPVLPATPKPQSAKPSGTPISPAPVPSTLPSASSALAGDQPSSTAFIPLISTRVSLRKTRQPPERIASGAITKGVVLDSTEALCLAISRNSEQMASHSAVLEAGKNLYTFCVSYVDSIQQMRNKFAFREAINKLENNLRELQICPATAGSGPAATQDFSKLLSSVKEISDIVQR

Row | IC50 | SMILES
1 | 32.1 nM | Cc1ccc(NC(=O)Nc2ccc(Cl)c(C(F)(F)F)c2)cc1C#Cc1cnc2c(Nc3cnn(C)c3)nccn12 [US11746110, Example 7]
2 | 82.9 nM | Cc1ccc(NC(=O)Nc2ccc(Cl)c(C(F)(F)F)c2)cc1C#Cc1cnc2c(Nc3cnn(C)c3)ccnn12 [US11746110, Example 16]
